# Patent US6043219A, “Broad spectrum chemotherapeutic peptide” (Kansas State University Research Foundation, priority 1997, dated 2000)
# Entries after “also recorded” stand apart in the source; their conditions may differ.
# Key:
# [1] = test system: Haemophilus parasuis; assay: Inhibitory spectrum, bactericidal assay (plate method); assay type: cell-based; conditions: Hemophilus parasuis
# [2] = test system: S. aureus; assay: Inhibitory spectrum, S. aureus; assay type: cell-based, Staphylococcus aureus
# [3] = test system: C. renale; assay: SDS-PAGE bioassay (gel overlaid with top agar containing C. renale); assay type: cell-based, Corynebacterium renale; conditions: finally purified BacR1
# Excerpt: Purified preparations of BacR1 were subjected to electrophoretic analysis by SDS-PAGE. After electrophoresis, gels were either silver stained (Blum et al. 1987. Electrophoresis 8:93-99) or bioassayed using a slight modification of the method of Bhunia et al. (1987. J. Indust. Microbiol. 2:319-322). Briefly, each protein sample was electrophoresed in a 10-20% SDS-PAGE gradient gel (Bio-Rad, Richmond, Calif.) as previously described (Laemmli et al. 1970. Nature. 227:680-685). After electrophoresis, SDS was removed by soaking the gel in 20% isopropanol-10% acetic acid in water for 2 h, followed by rinsing in distilled water for 4 h. The gel was then placed on a BHT-80 agar plate and overlaid with BHT-80 top agar (0.7% agar) containing C. renale. After incubation at 37° C. overnight, the plate/gel combination was examined for zones of growth inhibition.
# [4] = test system: Corynebacterium renale ATCC 19412; assay: Bactericidal assay of BacR1 (plate method)
# [5] = test system: C. renale; assay: Effect of BacR1 on viability of C. renale (A550 and viable cell counts over time); assay type: cell-based, Corynebacterium renale
# Description: FIG. 9 includes a pair of graphs illustrating the effect of BacR1 on the viability C. renale; the A550 of a culture of control cells (-.circle-solid.-) and a culture of cells incubated with BacR1 at a concentration of 100 AU/ml (-.box-solid.-) was measured at respective times;
# FIG. 10 includes a pair of graphs illustrating the effect of BacR1 on the viability C. renale; viable cell counts for a culture of control cells (-.circle-solid.-) and a culture of cells incubated with BacR1 at a concentration of 100 AU/ml (-.box-solid.-) were determined at respective times.
# BacR1 kills C. renale in a dose-dependent fashion, with a MIC50 of approximately 6 AU/ml (FIG. 8). Furthermore, the killing is rapid in the absence of cell lysis as evidenced in FIGS. 9 and 10. No viable cells were detected after 120 min of exposure to BacR1. […] Such recovery would be observed with a bacteriostatic agent.
# [6] = test system: Bordetella pertussis; assay: Inhibitory spectrum, bactericidal assay (plate method); assay type: cell-based; conditions: Bordatella pertussis
# [7] = test system: Streptococcus suis; assay: as above; assay type: cell-based
# [8] = Stability of BacR1: residual activity by bactericidal assay (plate method) after treatments; assay type: physicochemical
# Description: 7A, p. 315-422. […] Appl. Microbiol. 21:943].
# The stability of BacR1 was assessed by determining the activity of BacR1 by bactericidal assay (plate method) after exposure to various temperatures, environmental conditions, and enzymes (Table 2). Solutions of finally purified BacR1 at a concentration of 640 AU/ml were used in these stability experiments. BacR1 samples were held at various temperatures for 15 min, were held at pHs ranging from 3 to 11 at room temperature for 1 h, were incubated in 6M urea at room temperature for 1 h, or were incubated with 1 mg/ml of enzyme at room temperature for 1 h.
# [9] = test system: Bordetella brochoseptica; assay: Inhibitory spectrum, bactericidal assay (plate method); assay type: cell-based; conditions: B. bronchoseptica
# [10] = Preparative isoelectric focusing (Rotofor); assay type: physicochemical; conditions: ammonium sulfate-precipitated culture supernatant, ampholytes pH 3-10, fractions 15 through 17
# Description: Isoelectric focusing of ammonium sulfate-precipitated culture supernatants of S. aureus UT0007 was carried out on a Rotofor isoelectric focusing cell (Bio-Rad, Richmond, Calif.) in order to define certain biophysical characteristics of BacR1. Concentrated culture supernatants were dialyzed overnight in 3,500 molecular-weight-cutoff dialysis tubing (SpectraPor, Los Angeles, Calif.) against 4 L distilled water at 4° C. The dialyzed sample was centrifuged at 9,000× g for 10 min at 4° C. to remove insoluble material, and the supernatant was diluted to a total volume of 55 ml with distilled water. Ampholytes (pH 3-10) (Fisher, St. Louis, Mo.) were added to a final concentration of 1% and the sample was loaded into the Rotofor cell for focusing at 12 W constant power at 4° C. The initial conditions were approximately 600 V and 35 mA; upon equilibrium the values were approximately 1200 V and 15 mA. Twenty individual fractions were harvested and the total protein, pH, and BacR1 activity for each fraction was determined.
# [11] = test system: Pasteurella multocida; assay: Inhibitory spectrum, bactericidal assay (plate method); assay type: cell-based
# [12] = test system: methicillin-resistant S. aureus (MRSA) strains; assay: Additional analyses of the inhibitory spectrum; assay type: cell-based, Staphylococcus aureus; conditions: ten MRSA strains tested
# [13] = test system: Corynebacterium renale; assay: Inhibitory spectrum, bactericidal assay (plate method); assay type: cell-based; conditions: C. renale compared with other sensitive organisms
# [14] = crude preparation, Rogolsky et al. paper; cited from earlier work
# [15] = test system: Moraxella bovis; assay: Inhibitory spectrum, bactericidal assay (plate method); assay type: cell-based
# [16] = test system: C. renale; conditions: finally purified BacR1, 37° C., 5 h, A550
# [17] = test system: vancomycin-resistant strains of Enterococcus faecalis and E. faecium; assay: Additional analyses of the inhibitory spectrum; assay type: cell-based; conditions: remainder varying degrees of resistance
substance,measurement,setting,value
BacR1: 26-mer proteinaceous bacteriocin of approximately 3.4 kilodaltons produced by S. aureus UT0007; peptide sequence SEQ ID No. 3 (LGGAATGVIGYISNQTCPTTACTRAC),sensitivity to BacR1 (in words),[1],sensitive
same,sensitivity to BacR1 (in words),[2]; S. aureus,killed
same,relative susceptibility,[2]; S. aureus compared with other sensitive organisms,"susceptible, but required higher doses"
same,bactericidal activity in SDS-PAGE gel overlay,[3],possessed BacR1 activity
same,Specific Activity,[4]; purification stage: Ammonium Sulfate,1259 AU/mg
same,Specific Activity,[4]; purification stage: C4 Reverse-Phase (1st cycle),"16,642 AU/mg"
same,Specific Activity,"[4]; purification stage: C4 Reverse-Phase (2nd cycle), finally purified","37,450 AU/mg"
same,Specific Activity,[4]; purification stage: Cation Exchange,6963 AU/mg
same,Specific Activity,[4]; purification stage: Supernatant (1 L),152 AU/mg
same,exposure time after which no viable cells were detected,[5]; BacR1 100 AU/ml,120 min
same,mode of action (bactericidal vs bacteriostatic),"[5]; prolonged incubation, cells do not recover",bactericidal
same,sensitivity to BacR1 (in words),[6],sensitive
same,sensitivity to BacR1 (in words),[7],killed
same,% Residual Activity,"[8]; 4° C., 15 min, 640 AU/ml",100%
same,% Residual Activity,"[8]; 25° C., 15 min, 640 AU/ml",100%
same,% Residual Activity,"[8]; 37° C., 15 min, 640 AU/ml",100%
same,% Residual Activity,"[8]; -20° C., 15 min, finally purified BacR1 640 AU/ml",100%
same,% Residual Activity,"[8]; pH 3 to 11, room temperature, 1 h, 640 AU/ml",100%
same,sensitivity to BacR1 (in words),[9],killed; also recorded: sensitive
same,apparent average pI,[10],7.7
same,sensitivity to BacR1 (in words),[11],killed
same,sensitivity to BacR1 (in words),[12],very sensitive
same,relative susceptibility,[13],equally (and most) sensitive
same,maximum specific activity,[14],46 AU/mg
same,relative susceptibility,[15],equally (and most) sensitive
same,sensitivity to BacR1 (in words),[15]; Moraxella bovis,especially sensitive
same,MIC50 (concentration that caused a 50% inhibition of growth),[16],approximately 6 AU/ml
same,share of tested strains sensitive to BacR1,[17],About 40%
